In US20110039763A1, “TARGETED ANTIMICROBIAL MOIETIES” (C3 JIAN, INC., priority 2009, published 2011):

What was measured:
microorganisms [1] = assay: Morphology, biofilm and growth disrupting peptides (Table 5); format: cell-based; set-up: key: A: Peptide aggregates; B: Less hyphal formation; Clumps; Diffuse clumps and small polyps; F: Diffuse growth; H: Thin; I: Growth inhibition; Microcolony formation; Rippled; Small polyps; Thick; W: Halo formation on top, microlonies on bottom
Text: In certain embodiments peptides that induce alterations in phenotype or other biological activities can also be used as antimicrobial effector moieties.

microorganisms [2] = assay: Peptide activities: targeting/binding, antimicrobial, growth or phenotype altering (Tables 7, 8); format: cell-based; settings: peptides having multiple activities
Text: In certain embodiments, peptides described herein can have multiple activities. Thus for example, a peptide can have both binding/targeting activity and antimicrobial activity. Such peptides can be used, e.g., in a chimeric construct, for any or all of these properties. Thus, for example, a peptide designated “B” in Table 8 can be used as a targeting peptide. If it is also designated G or M it can also be used for antimicrobial activity.
Table 8. Peptides Having Multiple Activities. B: Targeting/Binding Activity; M: Antimicrobial Activity; G: GROWTH or Phenotype Altering.

microorganisms [3] = assay: Targeting peptide binding to target microorganisms (Tables 3, 10, 12); settings: microorganism(s) the targeting peptide binds; binding in aqueous buffers varied with peptide solubility, preferably 1x PBS

| Substance | Organism, effect (microorganisms [1]; MRSA) | Organism, effect (microorganisms [1]; S. pneumoniae) | Organism, effect (microorganisms [1]; E. faecalis) | Target(s) (microorganisms [3]) | other results |
| --- | --- | --- | --- | --- | --- |
| ALCSVIKAIELGIINVHLQ [PF-366] |  |  |  |  | Organism, effect: C. jejuni (microorganisms [1]): C. jejuni (D); Organism, effect: E. coli (microorganisms [1]): E. coli (C); Organism, effect: E. faecalis (microorganisms [1]; E. faecalis): E. faecalis (C); Organism, effect: MRSA (microorganisms [1]; MRSA): MRSA (D); Organism, effect: P. aeruginosa (microorganisms [1]; P. aeruginosa): P. aeruginosa (A); Organism, effect: S. epidermidis (microorganisms [1]; S. epidermidis): S. epidermidis (R); Organism, effect: S. pneumoniae (microorganisms [1]; S. pneumoniae): S. pneumoniae (C); Activities (microorganisms [2]): G B |
| EILNNNQVIKELTMKYKTQFESNLGGWTARARR [PF-580] | MRSA (M) | S. pneumoniae (C) |  |  | Organism, effect (microorganisms [1]; M. luteus): M. luteus (C); Organism, effect (microorganisms [1]; S. epidermidis): S. epidermidis (M); Activities (microorganisms [2]): G B |
| MGIIAGIIKVIKSLIEQFTGK [PF-007] |  |  |  |  | Organism, effect: E. coli (microorganisms [1]): E. coli (A); Organism, effect: E. faecalis (microorganisms [1]; E. faecalis): E. faecalis (A); Organism, effect: M. luteus (microorganisms [1]; M. luteus): M. luteus (A); Organism, effect: MRSA (microorganisms [1]; MRSA): MRSA (R); Organism, effect: S. epidermidis (microorganisms [1]; S. epidermidis): S. epidermidis (A); Activities (microorganisms [2]): G B |
| MIHLTKQNTMEALHFIKQFYDMFFILNFNV [PF-040] |  |  |  |  | Organism, effect: B. subtilis (microorganisms [1]; B. subtilis): B. subtilis (D); Organism, effect: C. jeikeium (microorganisms [1]; C. jeikeium): C. jeikeium (D); Organism, effect: C. jejuni (microorganisms [1]): C. jejuni (D); Organism, effect: E. coli (microorganisms [1]): E. coli (C); Organism, effect: M. luteus (microorganisms [1]; M. luteus): M. luteus (D); Organism, effect: MRSA (microorganisms [1]; MRSA): MRSA (D); Organism, effect: P. mirabilis (microorganisms [1]; P. mirabilis): P. mirabilis (C); Organism, effect: S. epidermidis (microorganisms [1]; S. epidermidis): S. epidermidis (D); Organism, effect: S. mutans (microorganisms [1]; S. mutans, class symbol): S. mutans (F); Organism, effect: S. pneumoniae (microorganisms [1]; S. pneumoniae): S. pneumoniae (D); Activities (microorganisms [2]): G B |
| PF-667 (chain 1 PAHQRLRIDQRLVADRDMVQDYES; chain 2 PAHQRLRIDQRLVADRDMVQDYES; Peptide with targeting and/or antimicrobial activity) | MRSA (R) | S. pneumoniae (R) | E. faecalis (R) | Mycobacteria spp | Organism, effect (microorganisms [1]; S. epidermidis): S. epidermidis (R) |
| PF-668 (chain 1 TNAESMALAFRGRVHMSVNIAGLT; chain 2 TNAESMALAFRGRVHMSVNIAGLT; Peptide with targeting and/or antimicrobial activity) | MRSA (R) | S. pneumoniae (M) | E. faecalis (D) | Mycobacteria spp | Organism, effect (microorganisms [1]; B. subtilis): B. subtilis (A); Organism, effect (microorganisms [1]; C. albicans): C. albicans (A); Organism, effect (microorganisms [1]; C. jeikeium): C. jeikeium (D); Organism, effect (microorganisms [1]; S. epidermidis): S. epidermidis (M) |
| PF-675 (EIIPISPTRRCEMHTMSSAEYRGL; Peptide with targeting and/or antimicrobial activity) |  | S. pneumoniae (C) | E. faecalis (R) | Mycobacteria spp |  |
| PF-677 (TCRGAGMH; Peptide with targeting and/or antimicrobial activity) | MRSA (D) | S. pneumoniae (D) | E. faecalis (R) | Mycobacteria spp | Organism, effect (microorganisms [1]; S. epidermidis): S. epidermidis (R) |
| PF-680 (ADPHPTTGI; Peptide with targeting and/or antimicrobial activity) | MRSA (R) |  |  | Mycobacteria spp |  |
| PF-682 (RRGKSEQGLSRR; Peptide with targeting and/or antimicrobial activity) |  | S. pneumoniae (A) |  | Mycobacteria spp |  |
| PF-683 (LWPVA; Peptide with targeting and/or antimicrobial activity) | MRSA (R) | S. pneumoniae (H) |  | Mycobacteria spp | Organism, effect (microorganisms [1]; S. epidermidis): S. epidermidis (R) |
| PF-684 (RKLSLASGFALWRRSLV; Peptide with targeting and/or antimicrobial activity) |  | S. pneumoniae (C) | E. faecalis (A) | Mycobacteria spp | Organism, effect (microorganisms [1]; C. albicans): C. albicans (B) |
| PF-685 (PTLWLACL; Peptide with targeting and/or antimicrobial activity) | MRSA (M) | S. pneumoniae (M) | E. faecalis (R) | Mycobacteria spp | Organism, effect (microorganisms [1]; C. jeikeium): C. jeikeium (R); Organism, effect (microorganisms [1]; S. epidermidis): S. epidermidis (M) |
| PF-687 (AKRVLSLAVAPHRRQPVQGT; Peptide with targeting and/or antimicrobial activity) |  | S. pneumoniae (A) |  | Mycobacteria spp |  |
| PF-688 (ARNHAVIPAG; Peptide with targeting and/or antimicrobial activity) |  | S. pneumoniae (A) |  | Mycobacteria spp |  |
| PF-690 (MIPLAGDPVSSHRTVEFGVLGTYLVSGGSL; Peptide with targeting and/or antimicrobial activity) | MRSA (R) | S. pneumoniae (M) | E. faecalis (R) | Mycobacteria spp | Organism, effect (microorganisms [1]; S. epidermidis): S. epidermidis (R) |
| PF-691 (HRTVEFGVLGTYLVSGGSL; Peptide with targeting and/or antimicrobial activity) |  | S. pneumoniae (R) |  | Mycobacteria spp |  |
| PF-692 (GVAREDPLEPDPLAPIIDDSR; Peptide with targeting and/or antimicrobial activity) | MRSA (R) |  |  | Mycobacteria spp |  |
| PF-693 (PDPAR; Peptide with targeting and/or antimicrobial activity) |  | S. pneumoniae (A) |  | Mycobacteria spp |  |
| PF-694 (DLIRPLYSMSAPSVA; Peptide with targeting and/or antimicrobial activity) | MRSA (R) | S. pneumoniae (A) |  | Mycobacteria spp |  |
| PF-695 (ALSVMLGNIPLVVPNANQL; Peptide with targeting and/or antimicrobial activity) | MRSA (R) | S. pneumoniae (C) | E. faecalis (R) | Mycobacteria spp |  |
| PF-696 (IRSGISAAYARPLR; Peptide with targeting and/or antimicrobial activity) |  | S. pneumoniae (H) |  | Mycobacteria spp |  |
| PF-697 (RADARAK; Peptide with targeting and/or antimicrobial activity) |  | S. pneumoniae (H) |  | Mycobacteria spp | Organism, effect (microorganisms [1]; C. albicans): C. albicans (H) |
| PF-698 (SSGRAGVKCRRPTGR; Peptide with targeting and/or antimicrobial activity) |  | S. pneumoniae (A) | E. faecalis (A) | Mycobacteria spp | Organism, effect (microorganisms [1]; C. albicans): C. albicans (H) |
| PF-699 (GRAGVKCRRPTGR; Peptide with targeting and/or antimicrobial activity) |  | S. pneumoniae (A) |  | Mycobacteria spp |  |
| PF-700 (LNWPFTGR; Peptide with targeting and/or antimicrobial activity) |  | S. pneumoniae (C) |  | Mycobacteria spp |  |
| PF-702 (LSGRLAGRR; Peptide with targeting and/or antimicrobial activity) |  | S. pneumoniae (H) |  | Mycobacteria spp |  |
| PF-704 (APAARAAL; Peptide with targeting and/or antimicrobial activity) |  | S. pneumoniae (C) |  | Mycobacteria spp |  |
